From patent US9902722B2, “Biaryl kinase inhibitors” (BRISTOL-MYERS SQUIBB COMPANY, priority 2014, dated 2018)

Biological target: GST-Xa-hAAK1 (Homo sapiens (Human), UniProt Q2M2I8)
Assay: AAK1 Kinase Assay;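 further: each compound tested across an eleven-point concentration series, with IC50 obtained through non-linear regression fitting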
Type: biochemical
Conditions: bacterially expressed GST-Xa-hAAK1 3.5 nM; ATP 22 μM; peptide substrate 1.5 μM; 3 hours at room temperature; Caliper LabChip 3000
Experimental: The assays were performed in U-bottom 384-well plates. […] The reactions were initiated by the combination of bacterially expressed, GST-Xa-hAAK1 with substrates and test compounds. The reactions were incubated at room temperature for 3 hours and terminated by adding 60 μl of 35 mM EDTA buffer to each sample. […] Compounds were dissolved at 10 mM in dimethylsulfoxide (DMSO) and evaluated at eleven concentrations. IC50 values were derived by non-linear regression analysis.

GST-Xa-hAAK1, sequence (Q2M2I8 whole entry): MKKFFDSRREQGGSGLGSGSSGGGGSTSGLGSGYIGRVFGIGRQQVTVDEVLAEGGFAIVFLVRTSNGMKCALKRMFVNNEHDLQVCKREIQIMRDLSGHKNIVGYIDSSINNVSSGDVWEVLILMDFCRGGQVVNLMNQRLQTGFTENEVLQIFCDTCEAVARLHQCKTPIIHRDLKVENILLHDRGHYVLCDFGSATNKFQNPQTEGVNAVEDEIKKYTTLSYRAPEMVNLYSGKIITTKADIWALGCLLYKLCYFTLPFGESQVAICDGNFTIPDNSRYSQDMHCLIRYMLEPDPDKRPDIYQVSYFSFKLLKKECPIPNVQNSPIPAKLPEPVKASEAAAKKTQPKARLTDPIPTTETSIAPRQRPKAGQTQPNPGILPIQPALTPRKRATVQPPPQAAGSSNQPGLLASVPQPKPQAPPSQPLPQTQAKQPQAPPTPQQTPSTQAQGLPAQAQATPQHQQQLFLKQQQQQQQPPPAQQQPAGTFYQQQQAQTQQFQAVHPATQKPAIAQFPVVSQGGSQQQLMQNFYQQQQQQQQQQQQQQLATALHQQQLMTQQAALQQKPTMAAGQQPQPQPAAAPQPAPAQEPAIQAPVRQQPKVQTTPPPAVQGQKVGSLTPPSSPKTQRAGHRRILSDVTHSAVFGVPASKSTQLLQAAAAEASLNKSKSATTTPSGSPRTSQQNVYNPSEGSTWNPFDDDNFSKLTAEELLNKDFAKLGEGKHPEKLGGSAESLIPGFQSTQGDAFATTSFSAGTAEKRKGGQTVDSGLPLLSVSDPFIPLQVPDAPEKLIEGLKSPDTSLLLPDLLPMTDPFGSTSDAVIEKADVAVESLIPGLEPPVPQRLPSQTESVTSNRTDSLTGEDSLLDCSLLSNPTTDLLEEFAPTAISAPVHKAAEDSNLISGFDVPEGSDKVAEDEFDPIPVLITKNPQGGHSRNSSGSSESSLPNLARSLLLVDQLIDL

| SMILES | IC50 [nM] |
| --- | --- |
| CC(C)C[C@](C)(N)COc1ccc(-c2ccnc3ccccc23)c2ccccc12 [Example 209, (S)-2,4-dimethyl-1-((4-(quinolin-4-yl)naphthalen-1-yl)oxy)pentan-2-amine] | 21 |
| CCc1cc(-c2cc(C(F)F)c(OC[C@](C)(N)CC(C)C)cn2)ccn1 [Example 170, (R)-1-((4-(difluoromethyl)-2′-ethyl-[2,4′-bipyridin]-5-yl)oxy)-2,4-dimethylpentan-2-amine] | 285 |
| Cc1cc(-c2cc(C)c(OC[C@@](C)(N)CC(C)C)c(F)n2)ccn1 [Example 107, (S)-1-((6-fluoro-2′,4-dimethyl-[2,4′-bipyridin]-5-yl)oxy)-2,4-dimethylpentan-2-amine] | 50 |
| Cc1cc(-c2ccnc3ccc(F)cc23)cnc1OC[C@@](C)(N)CC(C)C [Example 223, (S)-1-((5-(6-fluoroquinolin-4-yl)-3-methylpyridin-2-yl)oxy)-2,4-dimethylpentan-2-amine] | 0.88 |
| COC(=O)Nc1cc(-c2cnc(OC[C@@](C)(N)CC(C)C)nc2)ccn1 [Example 211, (S)-methyl (4-(2-((2-amino-2,4-dimethylpentyl)oxy)pyrimidin-5-yl)pyridin-2-yl)carbamate] | 491 |
| CC(=O)Nc1cc(-c2ccc(OC[C@@](C)(N)CC(C)C)c(C(F)F)c2)ccn1 [Example 23, (S)—N-(4-(4-((2-amino-2,4-dimethylpentyl)oxy)-3-(difluoromethyl)phenyl)pyridin-2-yl)acetamide] | 0.76 |
| CC(C)C[C@](C)(N)COc1cnc(-c2ccnc3ccccc23)cc1C(F)F [Example 121, (S)-1-((4-(difluoromethyl)-6-(quinolin-4-yl)pyridin-3-yl)oxy)-2,4-dimethylpentan-2-amine] | 0.3 |
| CC(C)C[C@](C)(N)COc1ncc(-c2ccnc3ccccc23)cc1F [Example 98, (S)-1-((3-fluoro-5-(quinolin-4-yl)pyridin-2-yl)oxy)-2,4-dimethylpentan-2-amine] | 10 |
| COC(=O)Nc1cc(-c2ccc(OCC(C)(N)CC(C)C)c(C)c2)ccn1 (stereo not drawn) [Example 30, methyl (4-(4-((2-amino-2,4-dimethylpentyl)oxy)-3-methylphenyl)pyridin-2-yl)carbamate] | 1.4 |
| COC(=O)Nc1cc(-c2cc(C(F)F)c(OC[C@@](C)(O)CC(C)C)cn2)ccn1 [Example 177, (S)-methyl (4-(difluoromethyl)-5-((2-hydroxy-2,4-dimethylpentyl)oxy)-[2,4′-bipyridin]-2′-yl)carbamate] | 8.7 |
| Cc1cc(-c2ccc(OC[C@@](C)(N)CC(C)C)c(C(F)(F)F)c2)ccn1 [Example 45, (S)-2,4-dimethyl-1-(4-(2-methylpyridin-4-yl)-2-(trifluoromethyl)phenoxy)pentan-2-amine] | 1.2 |
| Cc1cc(-c2ccc(OC[C@@](C)(N)CC(C)C)c(S(C)(=O)=O)c2)ccn1 [Example 114, (S)-2,4-dimethyl-1-(4-(2-methylpyridin-4-yl)-2-(methylsulfonyl)phenoxy)pentan-2-amine] | 1400 |
| CC(C)C[C@@](C)(N)COc1ncc(-c2ccnc3ccccc23)cc1C(F)F [Example 246, (R)-1-((3-(difluoromethyl)-5-(quinolin-4-yl)pyridin-2-yl)oxy)-2,4-dimethylpentan-2-amine] | 26 |
| COC(=O)Nc1cc(-c2cc(C(F)(F)F)c(OC[C@@](C)(N)CC(C)C)cn2)ccn1 [Example 146, (S)-methyl (5-((2-amino-2,4-dimethylpentyl)oxy)-4-(trifluoromethyl)-[2,4′-bipyridin]-2′-yl)carbamate] | 0.19 |
| CC(C)C[C@](C)(N)COc1ccc(-c2ccnc3[nH]ccc23)cc1C(F)(F)F [Example 84, (S)-1-(4-(1H-pyrrolo[2,3-b]pyridin-4-yl)-2-(trifluoromethyl)phenoxy)-2,4-dimethylpentan-2-amine] | 2.2 |
| CC(C)C[C@](C)(N)COc1ccc(-c2ccnc3ccccc23)cc1C(F)(F)F [Example 69, (S)-2,4-dimethyl-1-(4-(quinolin-4-yl)-2-(trifluoromethyl)phenoxy)pentan-2-amine] | 0.76 |
| CC(C)C[C@](C)(N)COc1ccc(-c2ccnc(F)c2F)cc1C(F)(F)F [Example 42, (S)-1-(4-(2,3-difluoropyridin-4-yl)-2-(trifluoromethyl)phenoxy)-2,4-dimethylpentan-2-amine] | 3.3 |

Results, then the molecule that gave them:

| IC50 [nM] | SMILES |
| --- | --- |
| 1.7 | Cc1cc(-c2ccnc3cc(F)ccc23)cnc1OC[C@@](C)(N)CC(C)C [Example 76, (S)-1-((5-(7-fluoroquinolin-4-yl)-3-methylpyridin-2-yl)oxy)-2,4-dimethylpentan-2-amine] |
| 0.31 | CC(C)C[C@](C)(N)COc1ncc(-c2ccnc3cc(Cl)ccc23)cc1C(F)F [Example 197, (S)-1-((5-(7-chloroquinolin-4-yl)-3-(difluoromethyl)pyridin-2-yl)oxy)-2,4-dimethylpentan-2-amine] |
| 970 | COC(=O)Nc1cc(-c2ccc(OC[C@@](C)(N)CC(C)C)c(CN(C)C)c2)ccn1 [Example 112, (S)-methyl (4-(4-((2-amino-2,4-dimethylpentyl)oxy)-3-((dimethylamino)methyl)phenyl)pyridin-2-yl)carbamate] |
| 0.38 | COC(=O)Nc1cc(-c2cnc(OC[C@@](C)(N)CC(C)C)c(C(F)(F)F)c2)ccn1 [Example 220, (S)-methyl (6-((2-amino-2,4-dimethylpentyl)oxy)-5-(trifluoromethyl)-[3,4′-bipyridin]-2′-yl)carbamate] |
| 7.8 | Cc1nc(-c2ccnc3ccccc23)ccc1OC[C@@](C)(N)CC(C)C [Example 81, (S)-2,4-dimethyl-1-((2-methyl-6-(quinolin-4-yl)pyridin-3-yl)oxy)pentan-2-amine] |
| 0.64 | CC(C)C[C@](C)(N)COc1ccc(-c2ccncc2)cc1C(F)(F)F [Example 43, (S)-2,4-dimethyl-1-(4-(pyridin-4-yl)-2-(trifluoromethyl)phenoxy)pentan-2-amine] |
| 3.5 | CC(C)C[C@](C)(N)COc1ccc(-c2ccnc3cc(F)ccc23)nc1C(F)F [Example 128, (S)-1-((2-(difluoromethyl)-6-(7-fluoroquinolin-4-yl)pyridin-3-yl)oxy)-2,4-dimethylpentan-2-amine] |
| 35 | Cc1nc(-c2ccnc3ccc(F)cc23)ccc1OC[C@@](C)(N)CC(C)C [Example 138, (S)-1-((6-(6-fluoroquinolin-4-yl)-2-methylpyridin-3-yl)oxy)-2,4-dimethylpentan-2-amine] |
| 8.8 | CC(C)C[C@@](N)(CF)COc1ccc(-c2ccnc(C(F)F)c2)nc1C(F)F [Example 183, (S)-1-((2′,6-bis(difluoromethyl)-[2,4′-bipyridin]-5-yl)oxy)-2-(fluoromethyl)-4-methylpentan-2-amine] |
| 3.3 | CC(C)C[C@@](N)(CF)COc1cnc(-c2ccnc(C(F)F)c2)cc1C(F)F [Example 184, (S)-1-((2′,4-bis(difluoromethyl)-[2,4′-bipyridin]-5-yl)oxy)-2-(fluoromethyl)-4-methylpentan-2-amine] |
| 1.1 | COC(=O)Nc1cc(-c2ccc(OC[C@@H](N)CC(C)C)c(F)c2)ccn1 [Example 13, (S)-methyl (4-(4-((2-amino-4-methylpentyl)oxy)-3-fluorophenyl)pyridin-2-yl)carbamate] |
| 2 | COC(=O)Nc1cc(-c2ccc(OC[C@](N)(CF)CC(C)C)c(C(F)F)n2)ccn1 [Example 179, (S)-methyl (5-((2-amino-2-(fluoromethyl)-4-methylpentyl)oxy)-6-(difluoromethyl)-[2,4′-bipyridin]-2′-yl)carbamate] |
| 79 | COC(=O)Nc1cc(-c2ncc(OC[C@@](C)(N)CC(C)C)cn2)ccn1 [Example 210, (S)-methyl (4-(5-((2-amino-2,4-dimethylpentyl)oxy)pyrimidin-2-yl)pyridin-2-yl)carbamate] |
| 0.65 | COC(=O)Nc1cc(-c2ccc(OC[C@@](C)(N)CC(C)C)c(Cl)n2)ccn1 [Example 66, (S)-methyl (5-((2-amino-2,4-dimethylpentyl)oxy)-6-chloro-[2,4′-bipyridin]-2′-yl)carbamate] |
| 0.51 | CC(C)C[C@](C)(N)COc1ccc(-c2ccnc(C(F)F)c2)cc1C(F)F [Example 37, (S)-1-(2-(difluoromethyl)-4-(2-(difluoromethyl)pyridin-4-yl)phenoxy)-2,4-dimethylpentan-2-amine] |
| 0.63 | COC(=O)Nc1cc(-c2ccc(OC[C@@](C)(N)CC(C)C)c(C(F)F)c2)ccn1 [Example 24, (S)-methyl (4-(4-((2-amino-2,4-dimethylpentyl)oxy)-3-(difluoromethyl)phenyl)pyridin-2-yl)carbamate] |
| 0.46 | CC(C)C[C@](C)(N)COc1ccc(-c2ccnc3cc(Cl)ccc23)cc1C(F)(F)F [Example 88, (S)-1-(4-(7-chloroquinolin-4-yl)-2-(trifluoromethyl)phenoxy)-2,4-dimethylpentan-2-amine] |
| 0.07 | CC(C)C[C@](C)(N)COc1ccc(-c2ccnc3ccccc23)cc1C1CC1 [Example 74, (S)-1-(2-cyclopropyl-4-(quinolin-4-yl)phenoxy)-2,4-dimethylpentan-2-amine] |
| 1.2 | CC(C)C[C@](C)(N)COc1ccc(-c2ccnc3ccncc23)cc1C#N [Example 86, (S)-2-((2-amino-2,4-dimethylpentyl)oxy)-5-(1,6-naphthyridin-4-yl)benzonitrile] |
| 6.2 | CC(C)C[C@](C)(N)COc1ccc(-c2ccnc3ccc(F)cc23)nc1C(F)F [Example 127, (S)-1-((2-(difluoromethyl)-6-(6-fluoroquinolin-4-yl)pyridin-3-yl)oxy)-2,4-dimethylpentan-2-amine] |
| 5.4 | CC(C)C[C@](C)(N)COc1ccc(-c2ccnc(Cl)c2)nc1C(F)F [Example 158, (S)-1-((2′-chloro-6-(difluoromethyl)-[2,4′-bipyridin]-5-yl)oxy)-2,4-dimethylpentan-2-amine] |
| 17 | CC(C)C[C@@](C)(N)COc1cnc(-c2ccnc(C(F)F)c2)cc1C(F)F [Example 175, (R)-1-((2′,4-bis(difluoromethyl)-[2,4′-bipyridin]-5-yl)oxy)-2,4-dimethylpentan-2-amine] |
